Reference: US12030896B2, “PIKfyve inhibitors” (Mayo Foundation for Medical Education and Research, priority 2018, dated 2024)
Read-outs that look alike come from different tables or passages of the source.

Assay: Pharmacokinetic study of Example 1 in mouse (IV, IP, PO)
Format: in vivo, Male C57BL/6 Mouse
Conditions: male, C57BL/6, mouse, plasma; for AUC(0-inf): read-out: AUC0-inf; for Cmax: read-out: Cmax; for MRT inf: read-out: MRT0-inf; for MRT last: read-out: MRT0-last; for Tmax: read-out: Tmax; for concentration at 0.25 h: 0.250 h; for concentration at 0.5 h: 0.500 h; for C0: read-out: C0; for Vd: read-out: Vdss; for bioavailability: calculated using AUC0-inf or AUC0-last with nominal dose
Description: Species: Male C57BL/6 Mouse, fasted.
PK/PD testing of the compound was performed in mice, after IP, IV, or oral administration.

[1] = ip, 30 mg/kg, IP 30 mg/kg, individual mice M4-M6
[2] = ip, 30 mg/kg, IP 30 mg/kg, mean
[3] = iv, 5 mg/kg, IV 5 mg/kg, individual mice M1-M3
[4] = po, 30 mg/kg, PO 30 mg/kg, individual mice M7-M9
[5] = po, 30 mg/kg, PO 30 mg/kg, mean

With `Cc1ccc(Nc2nc(N/N=C/c3c[nH]c4ccccc34)nc(N3CCOCC3)n2)cc1` [Example 1, (E)-4-(2-((1H-indol-3-yl)methylene)hydrazinyl)-6-morpholino-N-(p-tolyl)-1,3,5-triazin-2-amine] the concentration at 2 h [1] was 367 ng/mL, the concentration at 2 h [2] was 444 ng/mL and the concentration at 4 h [1] was 136 ng/mL. It also gave a concentration at 4 h [2] of 175 ng/mL, a concentration at 6 h [1] of 97.8 ng/mL and a concentration at 6 h [2] of 105 ng/mL. For the same molecule, the concentration at 24 h [1] was 35 ng/mL, the concentration at 24 h [2] was 36.6 ng/mL and the AUC(0-t) [1] was 2520 ng·h/mL. For the same molecule, the AUC(0-inf) [1] was 3060 ng·h/mL, the Cmax [1] was 443 ng/mL and the MRT inf [1] was 13 h. For the same molecule, the MRT last [1] was 7.2 h, the half-life (ip, 30 mg/kg, IP 30 mg/kg, individual mice M4-M6, read-out: T1/2 (converted)) was 654 min and the Tmax [1] was 60 min. For the same molecule, the AUC(0-t) [2] was 2850 ng·h/mL, the AUC(0-inf) [2] was 3390 ng·h/mL and the Cmax [2] was 534 ng/mL. It also gave an MRT inf [2] of 12 h, an MRT last [2] of 6.91 h and a half-life (ip, 30 mg/kg, IP 30 mg/kg, mean, read-out: T1/2 (converted)) of 606 min. The Tmax [2] was 79.8 min, the half-life (ip, 30 mg/kg, IP, single 30 mg/kg dose, read-out: half life (converted)) was 606 min and the concentration at 5 min [3] was 1300 ng/mL. The concentration at 5 min (iv, 5 mg/kg, IV 5 mg/kg, mean) was 1630 ng/mL, the concentration at 0.25 h [3] was 1140 ng/mL and the concentration at 0.25 h (iv, 5 mg/kg, IV 5 mg/kg, mean) was 1310 ng/mL. For the same molecule, the concentration at 0.5 h [3] was 832 ng/mL, the concentration at 0.5 h (iv, 5 mg/kg, IV 5 mg/kg, mean) was 1010 ng/mL and the concentration at 1 h [3] was 529 ng/mL. It also gave a concentration at 1 h (iv, 5 mg/kg, IV 5 mg/kg, mean) of 599 ng/mL, a concentration at 2 h [3] of 176 ng/mL and a concentration at 2 h (iv, 5 mg/kg, IV 5 mg/kg, mean) of 183 ng/mL. For the same molecule, the concentration at 4 h [3] was 17.4 ng/mL, the concentration at 4 h (iv, 5 mg/kg, IV 5 mg/kg, mean) was 16.8 ng/mL and the concentration at 6 h [3] was 5.13 ng/mL. It also gave a concentration at 6 h (iv, 5 mg/kg, IV 5 mg/kg, mean) of 4.2 ng/mL, an AUC(0-t) [3] of 1370 ng·h/mL and a clearance [3] of 60.5 mL/min/kg. For the same molecule, the AUC(0-inf) [3] was 1380 ng·h/mL, the C0 [3] was 1390 ng/mL and the MRT inf [3] was 0.959 h. It also gave an MRT last [3] of 0.936 h, a half-life (iv, 5 mg/kg, IV 5 mg/kg, individual mice M1-M3, read-out: T1/2 (converted)) of 42.6 min and a Vd [3] of 3.48 L/kg. The AUC(0-t) (iv, 5 mg/kg, IV 5 mg/kg, mean) was 1580 ng·h/mL, the clearance (iv, 5 mg/kg, IV 5 mg/kg, mean) was 53.4 mL/min/kg and the AUC(0-inf) (iv, 5 mg/kg, IV 5 mg/kg, mean) was 1580 ng·h/mL. The C0 (iv, 5 mg/kg, IV 5 mg/kg, mean) was 1820 ng/mL, the MRT inf (iv, 5 mg/kg, IV 5 mg/kg, mean) was 0.899 h and the MRT last (iv, 5 mg/kg, IV 5 mg/kg, mean) was 0.882 h. The half-life (iv, 5 mg/kg, IV 5 mg/kg, mean, read-out: T1/2 (converted)) was 40 min, the Vd (iv, 5 mg/kg, IV 5 mg/kg, mean) was 2.9 L/kg and the concentration at 0.25 h [4] was 52.7 ng/mL. For the same molecule, the concentration at 0.25 h [5] was 59.1 ng/mL, the concentration at 0.5 h [4] was 167 ng/mL and the concentration at 0.5 h [5] was 122 ng/mL. It also gave a concentration at 1 h [5] of 92 ng/mL, a concentration at 2 h [5] of 30.5 ng/mL and a concentration at 4 h [5] of 7.49 ng/mL. For the same molecule, the concentration at 6 h [4] was 11 ng/mL, the concentration at 6 h [5] was 10 ng/mL and the AUC(0-inf) [4] was 312 ng·h/mL. The Cmax [4] was 167 ng/mL, the MRT inf [4] was 2.1 h and the MRT last [4] was 1.69 h. For the same molecule, the half-life (po, 30 mg/kg, PO 30 mg/kg, individual mice M7-M9, read-out: T1/2 (converted)) was 78.6 min, the Tmax [4] was 30 min and the AUC(0-t) [5] was 188 ng·h/mL. The AUC(0-inf) [5] was 211 ng·h/mL, the Cmax [5] was 122 ng/mL and the MRT inf [5] was 2.4 h. It also gave an MRT last [5] of 1.61 h, a half-life (po, 30 mg/kg, PO 30 mg/kg, mean, read-out: T1/2 (converted)) of 92.4 min and a Tmax [5] of 30 min. The bioavailability (IP 30 mg/kg) was 35.7% and the bioavailability (PO 30 mg/kg) was 2.22%.
